Data on nine molecules can be found in patent US20120135959A1, “Metalloprotein inhibitors containing nitrogen based ligands” (priority 2006, published 2012).

Read-outs that look alike come from different tables or passages of the source.

One test addresses T1, MMP-3 (Homo sapiens, UniProt P08254).
T1 construct: purchased Biomol Research Laboratories
Kind of test: biochemical. The class given is biochemical.

Test [1] has as its target recombinant anthrax lethal factor (Bacillus anthracis, UniProt P15917). Nature of the test: biochemical. It counts as biochemical.
For test [2], the target named is T2, MMP-1 (Homo sapiens, UniProt P03956).
T2 sequence (P03956 100-469): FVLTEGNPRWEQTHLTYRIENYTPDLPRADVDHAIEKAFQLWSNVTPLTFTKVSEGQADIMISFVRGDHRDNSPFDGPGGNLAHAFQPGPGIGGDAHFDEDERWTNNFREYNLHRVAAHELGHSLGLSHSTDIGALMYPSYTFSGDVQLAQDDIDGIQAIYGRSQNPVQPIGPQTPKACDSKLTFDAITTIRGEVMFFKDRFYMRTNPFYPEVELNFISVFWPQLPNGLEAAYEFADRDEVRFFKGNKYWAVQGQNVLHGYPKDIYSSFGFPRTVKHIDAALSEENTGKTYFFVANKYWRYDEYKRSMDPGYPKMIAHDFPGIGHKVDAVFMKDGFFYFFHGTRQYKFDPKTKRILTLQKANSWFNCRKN
Conditions: for potency v. AHA: based on MMP-1 IC50; for IC50: read-out: MMP-1 IC50, fluorescence-based assay, pH 7.5, 1 h preincubation at 37° C., at least three independent experiments, spread in brackets.

Test [3] addresses T3, soybean lipoxygenase (sbLO) (Glycine max, UniProt P08170).
T3 construct: purchased Sigma-Aldrich
T3 sequence (P08170 1-839): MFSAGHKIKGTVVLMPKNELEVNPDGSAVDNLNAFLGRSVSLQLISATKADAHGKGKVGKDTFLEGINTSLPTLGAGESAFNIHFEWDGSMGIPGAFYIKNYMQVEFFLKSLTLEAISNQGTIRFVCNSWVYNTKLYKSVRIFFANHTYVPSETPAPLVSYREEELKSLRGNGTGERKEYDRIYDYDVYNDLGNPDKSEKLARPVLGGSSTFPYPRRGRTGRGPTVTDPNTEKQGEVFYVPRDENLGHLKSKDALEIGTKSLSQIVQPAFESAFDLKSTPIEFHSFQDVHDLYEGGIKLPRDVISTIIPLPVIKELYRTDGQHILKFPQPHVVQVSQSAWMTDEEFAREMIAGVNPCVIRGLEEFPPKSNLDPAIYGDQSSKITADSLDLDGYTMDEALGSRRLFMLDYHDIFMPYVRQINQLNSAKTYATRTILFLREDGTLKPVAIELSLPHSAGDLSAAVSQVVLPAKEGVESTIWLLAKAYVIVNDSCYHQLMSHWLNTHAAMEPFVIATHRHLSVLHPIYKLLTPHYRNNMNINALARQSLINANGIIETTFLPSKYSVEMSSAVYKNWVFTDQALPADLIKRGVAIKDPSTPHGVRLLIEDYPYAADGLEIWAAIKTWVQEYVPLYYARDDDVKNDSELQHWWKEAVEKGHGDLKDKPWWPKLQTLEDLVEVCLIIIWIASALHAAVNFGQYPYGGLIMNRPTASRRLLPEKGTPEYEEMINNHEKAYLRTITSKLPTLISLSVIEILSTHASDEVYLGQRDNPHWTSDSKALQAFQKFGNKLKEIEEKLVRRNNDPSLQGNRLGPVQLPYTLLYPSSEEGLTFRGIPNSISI
Nature of the test: Lipoxygenase assay (absorbance at 234 nm, linoleic acid substrate). It counts as biochemical. As to conditions: 3 hours preincubation; for inhibition at 300 µM: reference compounds, read-out: inhibition of product formation relative to control (no inhibitor).

Test [4] concerns the target T2, MMP-1. Kind of test: biochemical.

Sequence of recombinant anthrax lethal factor (P15917 34-809 limits assumed): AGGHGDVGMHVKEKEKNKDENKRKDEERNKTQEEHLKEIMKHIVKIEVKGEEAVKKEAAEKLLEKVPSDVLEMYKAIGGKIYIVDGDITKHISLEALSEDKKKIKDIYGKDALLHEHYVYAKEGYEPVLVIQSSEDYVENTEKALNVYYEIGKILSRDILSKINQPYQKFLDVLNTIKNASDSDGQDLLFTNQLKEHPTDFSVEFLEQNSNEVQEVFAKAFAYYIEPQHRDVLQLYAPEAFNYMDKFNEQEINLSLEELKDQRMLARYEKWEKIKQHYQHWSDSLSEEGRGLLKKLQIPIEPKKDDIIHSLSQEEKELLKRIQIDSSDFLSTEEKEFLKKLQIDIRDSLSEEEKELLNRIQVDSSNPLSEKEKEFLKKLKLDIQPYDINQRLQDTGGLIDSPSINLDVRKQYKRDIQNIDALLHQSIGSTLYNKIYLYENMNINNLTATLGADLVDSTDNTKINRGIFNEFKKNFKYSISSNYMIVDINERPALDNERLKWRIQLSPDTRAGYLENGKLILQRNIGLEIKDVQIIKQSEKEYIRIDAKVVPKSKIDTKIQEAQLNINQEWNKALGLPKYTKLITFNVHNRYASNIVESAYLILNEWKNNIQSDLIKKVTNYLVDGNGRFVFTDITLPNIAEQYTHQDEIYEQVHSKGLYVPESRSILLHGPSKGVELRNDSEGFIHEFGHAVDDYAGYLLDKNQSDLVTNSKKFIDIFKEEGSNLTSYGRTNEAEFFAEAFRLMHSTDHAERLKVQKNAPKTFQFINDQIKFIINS
T1 sequence (P08254 100-477): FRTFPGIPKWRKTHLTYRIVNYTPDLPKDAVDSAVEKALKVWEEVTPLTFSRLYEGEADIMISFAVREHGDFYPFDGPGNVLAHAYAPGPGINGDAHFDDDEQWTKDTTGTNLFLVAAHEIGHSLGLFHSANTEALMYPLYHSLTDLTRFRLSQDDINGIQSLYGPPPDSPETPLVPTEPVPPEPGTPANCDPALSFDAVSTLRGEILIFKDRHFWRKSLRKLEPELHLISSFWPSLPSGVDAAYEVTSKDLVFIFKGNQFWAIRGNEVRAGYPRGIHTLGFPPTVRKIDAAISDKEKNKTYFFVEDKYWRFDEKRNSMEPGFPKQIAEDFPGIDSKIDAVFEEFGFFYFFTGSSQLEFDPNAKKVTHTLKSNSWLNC

di(2-picolyl)amine [ZBG 5]: the “potency v. AHA” value is 185-fold at MMP-3 and 660-fold on MMP-1 [2]. In addition, the IC50 on MMP-3 (pH 6, read-out: MMP-3 IC50) was determined as 136 µM; in test [1] (pH 7, read-out: LF IC50), 370 µM.

Consider `c1ccc(CNCc2ccccn2)nc1` [ZBG 5, di(2-picolyl)amine], for which the IC50 at MMP-1 [2] came to 63 µM.

Regarding `O=C(O)c1ccccn1` [ZBG 1, picolinic acid], the figures for the IC50 (against MMP-3; in test [1]; on MMP-1 [4]) were 181 µM, 3500 µM and 2500 µM, respectively. The “potency v. AHA” value is recorded as 139-fold at MMP-3 and 17-fold at MMP-1 [2]. Also, the “inhibition of lipoxygenase activity” value in test [3] (ZBGs, method gives chelator final concentration 100 μM) turned out to be 2.3%.

On to `C1CNCCNCCN1` [ZBG 2], for which the “potency v. AHA” value is reported as 19-fold at MMP-3 and 7-fold at MMP-1 [2]. The IC50 on MMP-3 (pH 6, read-out: MMP-3 IC50) was found to be 1350 µM; in test [1] (pH 7, read-out: LF IC50), 1280 µM; at MMP-1 [2] it was 5690 µM.

Regarding `CC(=O)NO` [AHA, acetohydroxamic acid, reference compound], the IC50 was 25100 µM on MMP-3; 11400 µM in test [1] (pH 7, read-out: LF IC50); 41600 µM against MMP-1 [4]. Also, the inhibition at 300 µM in test [3] is 99%.

Consider `O=C(O)c1cccc(C(=O)O)n1` [ZBG 3, dipicolenic acid], for which the “potency v. AHA” value on MMP-3 is listed as 4-fold; at MMP-1 [2], 3-fold. Besides, the half-inhibitory concentration (IC50) on MMP-3 (pH 6, read-out: MMP-3 IC50) was 6100 µM; in test [1] (pH 7, read-out: LF IC50), 2690 µM; on MMP-1 [2], 13500 µM.

`Cc1occc(=O)c1O` [maltol]: the inhibition at 300 µM in test [3] amounted to 70%.

Turning to `O=C(O)CNCC(=O)O` [ZBG 6, aminodiacetic acid], the “potency v. AHA” value on MMP-3 is on record as 139-fold; at MMP-1 [2] it was 82-fold. Moreover, the concentration for half-maximal inhibition (IC50) at MMP-3 (pH 6, read-out: MMP-3 IC50) was 180 µM; in test [1] (pH 7, read-out: LF IC50) it was 930 µM; on MMP-1 [2] it was 510 µM.

For `C1CNCCNCCNCCN1` [ZBG 4, cyclen], the figures for the “potency v. AHA” value on MMP-3 and at MMP-1 [2] were 163-fold and 98-fold, respectively. Besides, the half-inhibitory concentration (IC50) on MMP-3 (pH 6, read-out: MMP-3 IC50) turned out to be 154 µM; in test [1] (pH 7, read-out: LF IC50), 5700 µM; at MMP-1 [2] it was 430 µM.

In general, IC50 refers to the concentration needed to halve the response being measured. By inhibition is commonly meant the percentage by which the read-out fell short of the control.
